Laboratory results reported in US8080423B2, “Reagent containing protease reaction promoter and/or colorant stabilizer” (Asahi Kasei Pharma Corporation, priority 2004, dated 2011).
Several values for one entry are separate records, joined by “and”; a condition that tells them apart may be missing. Equal entries are not always repeated. Where two headings read alike, the source gives them in different places.

Tests used:
[1] = system: Neutral protease (manufactured by Toyobo Co., Ltd.); assay: Screening of protease reaction promoter (Example 1); type: biochemical; conditions: for protease reaction promoting effect (in words): judged from Table 1
Description: 1) R-1: Reagent for Protein Decomposition
2) R-2: Reagent for Glycated Amino Acid Detection
The following substances were independently used as a test sample. Note that concentrations described in parentheses each represent a final concentration of the substance in the reagent R1.
Absorbance before the addition of the reagent R-2 and 5 minutes after the addition was measured at 660 nm. […] The AH-AL shown in Table 1 is a difference obtained by subtracting absorbance AL which was obtained from the primary calibrator at level 2 (5.38%) from absorbance AH which was obtained from the primary calibrator at level 4 (9.88%). Here, if AH-AL is large, the sample is judged to have a protease reaction promoting effect. In particular, when AH-AL is 20 or more, the sample has an excellent promoting effect.

hemoglobin = hemoglobin (Homo sapiens, UniProt P68871+P69905); assay: Measurement of hemoglobin and stability of reagent (Example 9); type: physicochemical; conditions: Example 2 reagent with 1% promoter; 660 nm; FIG. 1
Description: By using the reagents of Example 2, measurement was performed for a standard product having a known hemoglobin concentration.
Measurement was performed by using an autoanalyzer (Hitachi autoanalyzer 7170S; manufactured by Hitachi Ltd.). 20 μl of a sample was added with 180 μl of each of the reagents, and changes in absorbance were measured at 660 nm. Water was used as a control, and differences in absorbance between the sample and the water were calculated after 5 minutes. 5-serially diluted products of the standard hemoglobin product were used as the sample.
In addition, a preservation test was performed for a reagent in which sarcosinate MN was used as a protease reaction promoter at 37° C. for 4 days. The measurement of 5.5 g/dl of the standard hemoglobin product was performed by using, as a calibrator, a 30-fold diluted product of a standard substance for HbA1c measurement (primary calibrator JDS HbA1c Lot2, manufactured by Health Care Technology Foundation, level 1, hemoglobin concentration of 135 g/L). As a result, the measurement values of the hemoglobin were 54 mAbs, 4.5 g/L before the preservation test and 50 mAbs, 4.6 g/L after the preservation test. From the results, it was assumed that the present reagent is stable for 6 months or longer under refrigeration.

[2] = Screening of stabilizer for colorant, MBTH-TOOS (Example 13); type: physicochemical
[3] = Screening of stabilizer for colorant, DA64 (Example 13); type: physicochemical; conditions: DA-64, 750 nm, 37° C., additives at conc. (1%; IDA 1 mM; Zn, Al 0.1 mM; ferrocyanide 0.01 mM; sorbitol 5%; DMSO 10%)
Description: (§1) The following substances were used as test samples. Note that concentrations described in parentheses each represent a final concentration of the substance in the reagent R-1.
(§2) Tween-20 (1%), Brij35 (1%), Triton X-100 (1%), deoxycholic acid (1%), imino-diacetic acid (IDA; 1 mM), ZnSO4 (0.1 mM), AlCl3 (0.1 mM), potassium ferrocyanate (0.01 mM), sorbitol (5%), glucose (5%), sodium nitrite (2 mM), dimethylsulfoxide (DMSO; 10%) (those substances are manufactured by Wako Pure Chemical Industries, Inc.), 2-hydroxypropyl-β-cyclodextrin (2HP β CD; 0.5%, 2%, 5%) and methyl-β-cyclodextrin (M β CD; 0.5%, 2%, 5%) (those substances are manufactured by Nihon Shokuhin Kako Co., Ltd.).
(§3) 500 μl of the R-1 reagent and 500 μl of the R-2 which had been incubated to 37° C. were mixed. The mixture was incubated to 37° C. for 2 minutes, and absorbance thereof (A0) was measured. The mixture was added with 10 μl of 500 μM hydrogen peroxide or distilled water. The whole was incubated to 37° C., and absorbance exactly 5 minutes after the addition of hydrogen peroxide (A1) was measured, to calculate a change in absorbance ΔA (A1-A0). The absorbance was measured using a wavelength of 750 nm when DA64 was used as the colorant, a wavelength of 660 nm when DA67 was used as the colorant, and a wavelength of 570 nm when 4-AA-TOOS was used as the colorant.
(§4) Immediately after the preparation of the reagent, the reagent was preserved at 37° C. for 2 days and 9 days, and measurement of sensitivity of a blank which was distilled water and of hydrogen peroxide was performed.

[4] = Screening of stabilizer for colorant, DA67 (Example 13); type: physicochemical
Description: as §1, §2, §3, §4

[5] = Effect of catalase addition on reagent containing cyclodextrin and colorant (Example 14); type: physicochemical; conditions: for 500 μM hydrogen peroxide / Blank: DA-67, 2% 2-hydroxypropyl-β-cyclodextrin, 500 U/ml catalase, 37° C.
Description: as §3
The same operation method as in Example 13 was used. Immediately after the preparation of the reagent, the reagent was preserved at 37° C. for 2 days and 9 days, and measurement of sensitivity of a blank which was distilled water and of hydrogen peroxide was performed.

[6] = test sample 1% in R-1, 660 nm, 20 or more = excellent promoting effect
[7] = MBTH-TOOS, 570 nm, 37° C., 0 days, additives at conc. (1%; IDA 1 mM; Zn, Al 0.1 mM; ferrocyanide 0.01 mM; sorbitol 5%; DMSO 10%)
[8] = MBTH-TOOS, 570 nm, 37° C., 2 days, additives at conc. (1%; IDA 1 mM; Zn, Al 0.1 mM; ferrocyanide 0.01 mM; sorbitol 5%; DMSO 10%)
[9] = DA-67, 660 nm, 37° C., 0 days, additives at conc. (1%; IDA 1 mM; Zn, Al 0.1 mM; ferrocyanide 0.01 mM; sorbitol 5%; DMSO 10%)
[10] = DA-67, 660 nm, 37° C., 2 days, additives at conc. (1%; IDA 1 mM; Zn, Al 0.1 mM; ferrocyanide 0.01 mM; sorbitol 5%; DMSO 10%)
[11] = test sample 1 mM in R-1, 660 nm

hemoglobin, sequence (P69905 2-142 limits assumed): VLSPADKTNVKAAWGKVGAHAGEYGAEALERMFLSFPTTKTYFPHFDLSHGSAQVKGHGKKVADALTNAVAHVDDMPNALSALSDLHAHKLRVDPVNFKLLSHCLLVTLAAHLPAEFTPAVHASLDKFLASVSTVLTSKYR
hemoglobin, sequence (P68871 2-147 limits assumed): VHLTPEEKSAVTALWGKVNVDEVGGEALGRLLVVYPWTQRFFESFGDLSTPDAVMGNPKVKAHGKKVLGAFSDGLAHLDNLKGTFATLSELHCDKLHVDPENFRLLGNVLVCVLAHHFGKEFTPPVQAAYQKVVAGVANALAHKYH

Compound	protease reaction promoting effect (in words) [1]	AH − AL [1, 6] [mAbs]	blank (distilled water) change in absorbance [2, 7] [Abs]	blank (distilled water) change in absorbance [2, 8] [Abs]	blank (distilled water) change in absorbance ([3]; 0 days) [Abs]	blank (distilled water) change in absorbance ([3]; 2 days) [Abs]	blank (distilled water) change in absorbance ([3]; 9 days) [Abs]	blank (distilled water) change in absorbance [4, 9] [Abs]	blank (distilled water) change in absorbance [4, 10] [Abs]	AH (absorbance from primary calibrator at level 4 (9.88%)) ([1]; test sample 1% in R-1, 660 nm)	AL (absorbance from primary calibrator at level 2 (5.38%)) ([1]; test sample 1% in R-1, 660 nm)	also measured
CCCCCCCCCCCCOCCOCCOCCOCCOCCOCCOCCOCCOCCOCCOCC(=O)O [AKYPO-RLM100, polyoxyethylene(10)lauryl ether acetic acid]	effects were observed	29.1	–	–	–	–	–	–	–	–	–	quantification of hemoglobin (in words) (hemoglobin): hemoglobin was able to be quantified
[Cl][Al]([Cl])[Cl] [AlCl3]	–	–	–	–	–	–	–	–	–	–	–	AH (absorbance from primary calibrator at level 4 (9.88%)) [1]: 60.7; AH − AL [1]: 5.6 mAbs; AL (absorbance from primary calibrator at level 2 (5.38%)) [1]: 55.1; blank (distilled water) change in absorbance [2]: 0.045 Abs and 0.055 Abs and 0.058 Abs; change in absorbance when 500 μM of hydrogen peroxide was measured [2]: 0.005 and 0.009
C[S+](C)[O-] [Dimethylsulfoxide, dimethylsulfoxide, reference compound]	–	–	0.149	1.134	−0.005	0.085	0.233	0.088	2.103	–	–	AH (absorbance from primary calibrator at level 4 (9.88%)) ([1]; test sample 10% in R-1, 660 nm): 63.0; AH − AL ([1]; test sample 10% in R-1, 660 nm): 3.4 mAbs; AL (absorbance from primary calibrator at level 2 (5.38%)) ([1]; test sample 10% in R-1, 660 nm): 59.6
O=C(O)CNCC(=O)O [IDA, imino-diacetic acid, reference compound]	–	–	0.151	1.213	−0.010	0.078	0.210	0.089	2.131	–	–	AH (absorbance from primary calibrator at level 4 (9.88%)) [1, 11]: 67.7; AH − AL [1, 11]: 5.5 mAbs; AL (absorbance from primary calibrator at level 2 (5.38%)) [1, 11]: 62.2
CCCCCCCCCCCCCCCCCC(=O)N(C)CCS(=O)(=O)[O-].[Na+] [SMT, sodium N-stearoyl methyl taurinate]	effects were observed	23.8	–	–	–	–	–	–	–	110.2	86.4	quantification of hemoglobin (in words) (hemoglobin): hemoglobin was able to be quantified
OC[C@@H](O)[C@@H](O)[C@H](O)[C@@H](O)CO [Sorbitol, sorbitol, reference compound]	–	–	0.151	1.225	−0.010	0.080	0.230	0.093	2.545	–	–	AH (absorbance from primary calibrator at level 4 (9.88%)) ([1]; test sample 5% in R-1, 660 nm): 68.3; AH − AL ([1]; test sample 5% in R-1, 660 nm): 6.5 mAbs; AL (absorbance from primary calibrator at level 2 (5.38%)) ([1]; test sample 5% in R-1, 660 nm): 61.8
O=S(=O)([O-])[O-].[Zn+2] [ZnSO4, reference compound]	–	–	–	–	–	–	–	–	–	–	–	AH (absorbance from primary calibrator at level 4 (9.88%)) [1]: 145.7; AH − AL [1]: 1.6 mAbs; AL (absorbance from primary calibrator at level 2 (5.38%)) [1]: 144.1; blank (distilled water) change in absorbance [2]: 0.050 Abs and 0.049 Abs and 0.055 Abs; change in absorbance when 500 μM of hydrogen peroxide was measured [2]: 0.003; blank (distilled water) change in absorbance [4]: 0.051 Abs and 0.062 Abs and 0.050 Abs
TritonX-100 [reference compound]	–	5.2	0.146	1.135	−0.005	0.080	0.221	0.085	2.100	44.9	39.7	–
catalase	–	–	–	–	–	–	–	–	–	–	–	500 μM hydrogen peroxide ([5]; 0 days): 0.510; Blank ([5]; 0 days): 0.057; 500 μM hydrogen peroxide ([5]; 2 days): 0.335; Blank ([5]; 2 days): 0.452; 500 μM hydrogen peroxide ([5]; 9 days): 0.304; Blank ([5]; 9 days): 1.052; effect of catalase addition on blank after preservation (in words) ([5]; Table 4): the blank after preservation significantly decreased
monostearate polyoxyethylene(15)glyceryl [TMGS-15]	–	9.8	–	–	–	–	–	–	–	92.0	82.2	–
sodium cocoyl sarcosinate [Sarcosinate CN-30]	effects were observed	29.6	–	–	–	–	–	–	–	106.2	76.6	–
sodium polyoxyethylene(3)tridecyl ether acetate [ECTD-3NEX]	effects were observed	27.5	–	–	–	–	–	–	–	95.8	68.3	–
triethanolamine polyoxyethylene(3)alkyl ether sulfate [SBL-203-27]	effects were observed	27.8	–	–	–	–	–	–	–	112.1	84.3	–
